Results taken from the supplement of paper PMC8671470.

Experiments:
Settings in all cases: 72 h
MV4-11 [1] = tested on: MV4-11
Procedure, shortened: (§1)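 For the IC50, dose–response curves were fitted with a log-logistic model. The data came from fifteen myeloid leukaemia cell lines grown in RPMI 1640 at densities in the linear growth range and incubated in 384-well plates for 72 h at 37 °C under 5% CO2. Doses were five tenfold steps from 1 to 10,000 nM in duplicate, and luminescent ATP viability was normalised to vehicle and to a positive control at 10 µM before four-parameter fitting.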

K-562 [2] = tested on: K-562
Procedure, shortened: as §1

Mono-Mac-6 [3] = tested on: Mono-Mac-6
Procedure, shortened: as §1

KCL-22 [4] = tested on: KCL-22
Procedure, shortened: as §1

ML-2 [5] = tested on: ML-2
Procedure, shortened: as §1

KG-1 [6] = tested on: KG-1
Procedure, shortened: as §1

LAMA-84 [7] = tested on: LAMA-84
Procedure, shortened: as §1

MOLM-13 [8] = tested on: MOLM-13
Procedure, shortened: as §1

KU-812 [9] = tested on: KU-812
Procedure, shortened: as §1

HL-60 [10] = tested on: HL-60
Procedure, shortened: as §1

THP-1 [11] = tested on: THP-1
Procedure, shortened: as §1

SHI-1 [12] = tested on: SHI-1
Procedure, shortened: as §1

HEL [13] = tested on: HEL
Procedure, shortened: as §1

NOMO-1 [14] = tested on: NOMO-1
Procedure, shortened: as §1

BV-173 [15] = tested on: BV-173
Procedure, shortened: as §1

MV4-11 [16] = assay: cell viability (% survival relative to DMSO control, bortezomib = 0%); higher = less cytotoxic
Procedure, shortened: (§2)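 Percent survival is reported as the mean of duplicate wells. Cells from 10 AML and 5 CML lines were plated in 384-well plates containing compounds at 1, 10, 100, 1000 or 10000 nM and kept for 72 h at 37 °C in 5% CO2. Readout used CellTiter-Glo luminescence, scaled so that vehicle equals 100% and a 10 µM positive control equals 0%.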

K-562 [17] = assay: as above
Procedure, shortened: as §2

Mono-Mac-6 [18] = assay: as above
Procedure, shortened: as §2

KCL-22 [19] = assay: as above
Procedure, shortened: as §2

ML-2 [20] = assay: as above
Procedure, shortened: as §2

KG-1 [21] = assay: as above
Procedure, shortened: as §2

LAMA-84 [22] = assay: as above
Procedure, shortened: as §2

MOLM-13 [23] = assay: as above
Procedure, shortened: as §2

KU-812 [24] = assay: as above
Procedure, shortened: as §2

HL-60 [25] = assay: as above
Procedure, shortened: as §2

THP-1 [26] = assay: as above
Procedure, shortened: as §2

SHI-1 [27] = assay: as above
Procedure, shortened: as §2

HEL [28] = assay: as above
Procedure, shortened: as §2

NOMO-1 [29] = assay: as above
Procedure, shortened: as §2

BV-173 [30] = assay: as above
Procedure, shortened: as §2

O=C(CCl)N(CCCNC(=O)C(F)(F)F)c1ccc([N+](=O)[O-])cc1 [ML175]
Settings	IC50 (cell viability) [nM]
BV-173 [15]	320
HEL [13]	297
HL-60 [10]	2130
K-562 [2]	2950
KCL-22 [4]	2070
KG-1 [6]	341
KU-812 [9]	2230
LAMA-84 [7]	2540
ML-2 [5]	288
MOLM-13 [8]	276
MV4-11 [1]	309
Mono-Mac-6 [3]	896
NOMO-1 [14]	305
SHI-1 [12]	3410
THP-1 [11]	2770

cell viability [%]
Settings	1 nM	10 nM	100 nM	1000 nM	10000 nM
BV-173 [30]	122	99.9	101	-0.0318	-0.742
HEL [28]	105	106	96.3	-0.0497	-0.423
HL-60 [25]	104	111	110	83.4	-1.03
K-562 [17]	101	91.9	99.6	95.7	-0.364
KCL-22 [19]	113	118	85	82.5	-0.718
KG-1 [21]	109	109	96.8	6.67	-0.879
KU-812 [24]	99.1	96.8	89.7	81.3	-0.456
LAMA-84 [22]	107	106	90.5	89.9	-0.333
ML-2 [20]	97	102	94.5	0.519	-0.998
MOLM-13 [23]	89.5	115	92.4	0.57	-1.51
MV4-11 [16]	93.6	93	95.6	-0.18	-0.931
Mono-Mac-6 [18]	101	104	98.2	44.6	-1.09
NOMO-1 [29]	96.3	97.8	97.8	0.0839	-0.851
SHI-1 [27]	95	127	85.1	107	-0.834
THP-1 [26]	99.7	102	91.9	94.2	-2.38

CN(C)C(=N)NC(=N)N [Metformin]
Settings	IC50 (cell viability) [nM]
BV-173 [15]	> 10000
HEL [13]	> 10000
HL-60 [10]	> 10000
K-562 [2]	> 10000
KCL-22 [4]	> 10000
KG-1 [6]	> 10000
KU-812 [9]	> 10000
LAMA-84 [7]	> 10000
ML-2 [5]	> 10000
MOLM-13 [8]	> 10000
MV4-11 [1]	> 10000
Mono-Mac-6 [3]	> 10000
NOMO-1 [14]	> 10000
SHI-1 [12]	> 10000
THP-1 [11]	> 10000

cell viability [%]
Settings	1 nM	10 nM	100 nM	1000 nM	10000 nM
BV-173 [30]	107	90.3	92	100	89.2
HEL [28]	110	94.3	107	102	97.3
HL-60 [25]	98.2	93.8	109	102	84.3
K-562 [17]	91.9	102	97.5	103	91.1
KCL-22 [19]	98.2	98.9	98.4	103	88.1
KG-1 [21]	97.4	97.3	101	100	96.3
KU-812 [24]	102	95.5	96.2	110	88.5
LAMA-84 [22]	95.6	87.9	97.9	97.7	92.9
ML-2 [20]	102	101	99.2	101	88.5
MOLM-13 [23]	105	91.5	117	102	83.5
MV4-11 [16]	91.2	79.7	81.7	107	84.7
Mono-Mac-6 [18]	113	89.7	95.5	97.9	91.8
NOMO-1 [29]	109	93.6	95.4	97.1	92.2
SHI-1 [27]	103	98.3	104	106	93.9
THP-1 [26]	99.4	95.4	93	101	94.4
